Data published in patent US20260250289A1, “BICYCLIC HETEROCYCLES AND THEIR USE AS WRN INHIBITORS” (Novartis AG, priority 2022, published 2026).
Like-named read-outs stand apart in the source and are kept apart here.

Tests used:
[1] = target: T1, WRN helicase (aa N517-P1238) (Homo sapiens, UniProt Q14191); assay: WRN ATPase assay (DNA dependent ATP hydrolysis, ADP-Glo); type: biochemical; conditions: 3 hours pre-incubation, 300 micromolar ATP, FLAP26 DNA; geometric mean of at least 2
T1 construct: The core helicase motif of the WRN protein (aa N517-P1238) was produced for this assay; His (N); ZZ (N); 3C protease cleavage site (N); made in house; host or cells: Sf21 insect cells (baculovirus; virus and BIICs made in SF9)
Text: An ATPase assay was set up to measure the DNA dependent ATP hydrolysis activity of WRN helicase. This assay was used also to assess the inhibition properties of compounds of the invention on DNA dependent WRN ATPase activity.
The core helicase motif of the WRN protein (aa N517-P1238) was produced for this assay (protein production as described above). […] The ADP-Glo assay kit (Promega, Madison, WI) allowing the quantification of ADP produced in ATP hydrolysis reactions was used for setting up this assay.
Time course experiments were first performed in order to determine the best enzymatic assay conditions (including buffer conditions, reaction time and concentrations of protein, ATP and DNA substrates). A typical reaction consists of 10 nM WRN protein, 0.2 nM FLAP26, and 300 micromolar ATP in the following assay buffer: 30 mM Tris pH7.5, 2 mM MgCl2, 0.02% BSA, 50 mM NaCl, 0.1% pluronic F127 prepared in DNAse free water.
To evaluate the inhibition properties of compounds of the invention, serial dilutions were prepared in DMSO (10 half log dilutions from a 10 mM DMSO solution). […] The reaction was stopped with the addition of 5 microliters of the first ADP-Glo reagent and incubated for one hour to remove the excess amount of ATP. Afterwards, 10 microliters of ATP detection reagent was added and incubated for an additional hour before reading. Luminescence output was recorded using Tecan 1000 reader, with 5 minutes delay before reading. Each concentration of compound was tested in duplicates in the assay plate.
Following normalization of activity values for the wells to % inhibition (% inhibition=[(high control-sample)/(high control-low control)]×100), IC50 fitting was carried out from the duplicate determinations present on each plate according to [4]. Data analysis can also be carried out using commercially available software designed to derive IC50 values using 4-parameter fits (e.g. GraphPad Prism, XL fit). The reported IC50 values are the geometrical means of at least 2 independent replicates.

[2] = tested on: DLD1-WRN-KO cells; assay: Proliferation assay DLD1-WRN-KO (CellTiterGlo, off-target effects); type: cell-based; conditions: 96 hours, geometric mean of at least 2
Description: The WRN-knockdown insensitive colon carcinoma cell line DLD-1 (RRID: CVCL_0248) was obtained from the Korean Cell Line Bank (KCLB), and used to generate a derivative in which the endogenous WRN gene copies were knocked out by CRISPR-mediated editing using standard CRISPR methods. The resulting cell line, DLD1-WRN-KO, was used to assess potential off-target compound effects. […]
Three replicate plates were prepared for each compound treatment condition. In addition, one plate (termed “day 0”) was prepared to quantify the number of viable cells at the time of compound addition. Following overnight incubation at 37° C. in a humidified 5% CO2 atmosphere, eight 3-fold serial dilutions of a given compound stock (obtained at a concentration of 10 mM in DMSO and stored at 4° C.) were dispensed directly into each of the triplicate assay plates using a HP 300D non-contact Digital Dispenser (TECAN). The final concentration of DMSO was normalized to 0.1% in all wells. 96 hours after compound addition, cellular ATP levels as a surrogate for cell viability was assessed following addition of 50 microliters CellTiterGlo (Promega Cat #G7573) reagent and luminescence quantification on a MPLEX multi-mode plate-reader (TECAN) following a 10 minute incubation at room temperature. The number of viable cells in the “day 0” plate were quantified identically on the day of compound addition.
For data analysis, the assay background signal that was determined in wells containing medium, but no cells, was subtracted from all other data points prior to further calculations. The extent of growth inhibition and potential cell kill was assessed by comparing the ATP levels (measured using CellTiterGlo, Promega) in compound-treated cells with those present at the time of compound addition. […] 100%, 0% and −100% signify absence of growth inhibition, growth stasis, and complete cell kill, respectively. Compound concentrations leading to half-maximal growth inhibition (GI50) and residual cell viability at the highest tested compound concentration (Data (cmax), expressed in percent) were routinely calculated. Data analysis can also be carried out using commercially available software designed to derive IC50 values using 4-parameter fits (e.g. GraphPad Prism, XL fit). The reported GI50 values are the geometrical means of at least 2 independent replicates.

[3] = tested on: SW48 cells; assay: Proliferation assay SW48 (CellTiterGlo); type: cell-based; conditions: Homo sapiens, SW48, 96 h, read-out: Proliferation Assay SW48 GI50
Text: The colon carcinoma cell lines SW48 (RRID: CVCL_1724), HCT 116 (RRID: CVCL_0291) and SNU-407 (RRID: CVCL_5058) were obtained from ATCC. The WRN-knockdown insensitive colon carcinoma cell line DLD-1 (RRID: CVCL_0248) was obtained from the Korean Cell Line Bank (KCLB), and used to generate a derivative in which the endogenous WRN gene copies were knocked out by CRISPR-mediated editing using standard CRISPR methods. The resulting cell line, DLD1-WRN-KO, was used to assess potential off-target compound effects.
SW48, SNU-407 and DLD1-WRN-KO cells were cultured in growth medium composed of RPMI-1640 (Amimed Cat #1-41F22-1), 2 mM L-Glutamine (Amimed Cat #5-10K50), 10 mM HEPES (Gibco Cat #15630-056), 1 mM sodium pyruvate (Amimed Cat #5-60F00-H), 1× Penicillin-Streptomycin (Amimed Cat #4-01F00-H) and 10% fetal calf serum (Amimed Cat #2-01F30-G, Lot #LB11566P). HCT 116 cells were cultured in growth medium composed of McCoys 5A (Amimed catalog #1-18F01-1), 2 mM L-Glutamine (Amimed Cat #5-10K50), 1× Penicillin-Streptomycin (Amimed Cat #4-01F00-H) and 10% fetal calf serum (Amimed Cat #2-01F30-G, Lot #LB11566P). All cells were maintained at 37° C. in a humidified 5% CO2 incubator.
Following filtration through a Steriflip-NY 20 μm filter (Millipore Cat #SCNY00020), trypsinized cells were seeded in 100 microliters growth medium at 2,000 (SW48) or 1,500 (SNU-407, DLD1-WRN-KO, HCT 116) cells/well into white, clear-bottom 96-well plates (Costar Cat #3903). Three replicate plates were prepared for each compound treatment condition. In addition, one plate (termed “day 0”) was prepared to quantify the number of viable cells at the time of compound addition. Following overnight incubation at 37° C. in a humidified 5% CO2 atmosphere, eight 3-fold serial dilutions of a given compound stock (obtained at a concentration of 10 mM in DMSO and stored at 4° C.) were dispensed directly into each of the triplicate assay plates using a HP 300D non-contact Digital Dispenser (TECAN). The final concentration of DMSO was normalized to 0.1% in all wells. 96 hours after compound addition, cellular ATP levels as a surrogate for cell viability was assessed following addition of 50 microliters CellTiterGlo (Promega Cat #G7573) reagent and luminescence quantification on a MPLEX multi-mode plate-reader (TECAN) following a 10 minute incubation at room temperature. The number of viable cells in the “day 0” plate were quantified identically on the day of compound addition.
For data analysis, the assay background signal that was determined in wells containing medium, but no cells, was subtracted from all other data points prior to further calculations. The extent of growth inhibition and potential cell kill was assessed by comparing the ATP levels (measured using CellTiterGlo, Promega) in compound-treated cells with those present at the time of compound addition. To this end, the following conditional concept was programmatically applied in HELIOS, an in-house software applying a multi-step decision tree to arrive at optimal concentration response curve fits (Gubler et al, SLAS DOI: 10.1177/2472555217752140) to calculate % growth (% G) for each compound-treated well: % G=(T−V0)/V0))*100 when T<V0, and % G=(T−V0)/(V−V0)))*100 when T≥V0, where V0 is the viability level at time of compound addition, while V and T represent vehicle-control and compound-treated viability levels, respectively, at the end of the compound incubation. 100%, 0% and −100% signify absence of growth inhibition, growth stasis, and complete cell kill, respectively. Compound concentrations leading to half-maximal growth inhibition (GI50) and residual cell viability at the highest tested compound concentration (Data (cmax), expressed in percent) were routinely calculated. Data analysis can also be carried out using commercially available software designed to derive IC50 values using 4-parameter fits (e.g. GraphPad Prism, XL fit). […]

[4] = SW48 colon carcinoma cells, 96 hours, CellTiterGlo, geometric mean of at least 2

T1 sequence (Q14191 517-1238): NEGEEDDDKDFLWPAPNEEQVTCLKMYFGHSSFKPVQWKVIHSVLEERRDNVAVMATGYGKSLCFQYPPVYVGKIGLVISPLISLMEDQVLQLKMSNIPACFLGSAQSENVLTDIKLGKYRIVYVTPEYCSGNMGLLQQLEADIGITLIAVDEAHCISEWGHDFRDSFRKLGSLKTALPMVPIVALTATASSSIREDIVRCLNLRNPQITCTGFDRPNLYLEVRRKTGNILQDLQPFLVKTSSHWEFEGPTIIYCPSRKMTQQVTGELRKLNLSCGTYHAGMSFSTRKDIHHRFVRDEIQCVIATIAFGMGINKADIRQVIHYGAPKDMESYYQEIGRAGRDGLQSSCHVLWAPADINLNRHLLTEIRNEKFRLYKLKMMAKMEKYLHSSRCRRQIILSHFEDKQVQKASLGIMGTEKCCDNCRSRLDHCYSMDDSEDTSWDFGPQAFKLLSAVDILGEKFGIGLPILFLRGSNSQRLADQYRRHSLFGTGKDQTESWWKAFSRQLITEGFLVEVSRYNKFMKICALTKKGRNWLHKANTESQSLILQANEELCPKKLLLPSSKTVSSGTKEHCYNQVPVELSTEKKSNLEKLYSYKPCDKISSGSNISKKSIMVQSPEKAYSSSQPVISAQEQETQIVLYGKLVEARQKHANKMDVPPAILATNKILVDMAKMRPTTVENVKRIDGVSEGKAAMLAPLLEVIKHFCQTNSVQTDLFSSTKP

SMILES	IC50 [1] [µM]	GI50 [2] [µM]	GI50 [3, 4] [µM]	GI50 [3] [µM]
CC(=O)N1CCN(c2c(C)n(CC(=O)Nc3ccc(C(F)(F)F)cc3)c3nc(N4CCCC(F)C4)nn3c2=O)CC1 (stereo not shown) [Example 1, 2-(6-(4-acetylpiperazin-1-yl)-2-(3-fluoropiperidin-1-yl)-5-methyl-7-oxo-[1,2,4]triazolo[1,5-a]pyrimidin-4(7H)-yl)-N-(4-(trifluoromethyl)phenyl)acetamide]	1	> 10	5	
CC(=O)N1CCN(c2nc3n(CC(=O)Nc4ccc(Cl)cc4)c(C)c(N4CCN(C(=O)c5ccncc5O)CC4)c(=O)n3n2)CC1 [Example 2, 2-(2-(4-acetylpiperazin-1-yl)-6-(4-(3-hydroxyisonicotinoyl)piperazin-1-yl)-5-methyl-7-oxo-[1,2,4]triazolo[1,5-a]pyrimidin-4(7H)-yl)-N-(4-chlorophenyl)acetamide]	0.3	> 10	> 10	
CC(=O)N1CCN(c2c(C)n(CC(=O)Nc3ccc(Cl)cc3)c3nc(-c4ccccc4)nn3c2=O)CC1 [Example 3, 2-(6-(4-acetylpiperazin-1-yl)-5-methyl-7-oxo-2-phenyl-[1,2,4]triazolo[1,5-a]pyrimidin-4(7H)-yl)-N-(4-chlorophenyl)acetamide]	0.1	10	3	
CC(=O)N1CCN(c2c(C)n(CC(=O)Nc3ccc(C(F)(F)F)nc3Cl)c3nc(N4CCCC(F)C4)nn3c2=O)CC1 (stereo not shown) [Example 5, 2-(6-(4-acetylpiperazin-1-yl)-2-(3-fluoropiperidin-1-yl)-5-methyl-7-oxo-[1,2,4]triazolo[1,5-a]pyrimidin-4(7H)-yl)-N-(2-chloro-6-(trifluoromethyl)pyridin-3-yl)acetamide]	2	> 10	8	
CCc1c(N2CCN(C(=O)c3nccc4cc[nH]c34)CC2)c(=O)n2nc(C3=CCOCC3)nc2n1CC(=O)Nc1ccc(C(F)(F)F)cc1C [Example 41, 2-(6-(4-(1H-pyrrolo[2,3-c]pyridine-7-carbonyl)piperazin-1-yl)-2-(3,6-dihydro-2H-pyran-4-yl)-5-ethyl-7-oxo-[1,2,4]triazolo[1,5-a]pyrimidin-4(7H)-yl)-N-(2-methyl-4-(trifluoromethyl)phenyl)acetamide]				0.1
CCc1ccc(NC(=O)Cn2c(C)c(C3CCN(C(C)=O)CC3)c(=O)n3nc(C4=CCOCC4)nc23)cc1Cl [Example 144, 2-(6-(1-acetylpiperidin-4-yl)-2-(3,6-dihydro-2H-pyran-4-yl)-5-methyl-7-oxo-[1,2,4]triazolo[1,5-a]pyrimidin-4(7H)-yl)-N-(3-chloro-4-ethylphenyl)acetamide]			3	

The next lines start with the values.

IC50 [1] [µM]	GI50 [2] [µM]	GI50 [3, 4] [µM]	GI50 [3] [µM]	SMILES
		2		CC(=O)N1CCC(c2c(C)n(CC(=O)Nc3ccc(C(F)(F)F)cc3)c3nc(C4=CCCCC4)nn3c2=O)CC1 [Example 145, 2-(6-(1-acetylpiperidin-4-yl)-2-(cyclohex-1-en-1-yl)-5-methyl-7-oxo-[1,2,4]triazolo[1,5-a]pyrimidin-4(7H)-yl)-N-(4-(trifluoromethyl)phenyl)acetamide]
0.2		4		Cc1c(N2CCN(C(=O)c3cc(F)ccc3O)CC2)c(=O)n2nc(N3CCOCC3)nc2n1CC(=O)Nc1ccc(C(F)(F)F)cc1 [Example 151, 2-(6-(4-(5-fluoro-2-hydroxybenzoyl)piperazin-1-yl)-5-methyl-2-morpholino-7-oxo-[1,2,4]triazolo[1,5-a]pyrimidin-4(7H)-yl)-N-(4-(trifluoromethyl)phenyl)acetamide]
0.09		> 10		Cc1c(N2CCN(C(=O)NNC(=O)C(F)(F)F)CC2)c(=O)n2nc(C3=CCOCC3)nc2n1CC(=O)Nc1ccc(C(F)(F)F)cc1 [Example 165, 2-(2-(3,6-dihydro-2H-pyran-4-yl)-5-methyl-7-oxo-6-(4-(2-(2,2,2-trifluoroacetyl)hydrazine-1-carbonyl)piperazin-1-yl)-[1,2,4]triazolo[1,5-a]pyrimidin-4(7H)-yl)-N-(4-(trifluoromethyl)phenyl)acetamide]
